Patent US20260109732A1, “LIPID AMINES” (ModernaTX, Inc., priority 2021, published 2026)
Structures can show the parent of a compound that is named as a salt.

Columns and labels:
HeLa cells [1] = assay: Luciferase Protein Expression Assay in HeLa Cells; assay type: cell-based, Human; conditions: LNPs encapsulating Luciferase mRNA, 25 ng per well, N=4 wells; 5 h serum-free then 24 h; ONE-Glo
Procedure, shortened: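 HeLa cells received LNPs carrying luciferase mRNA (25 ng per well) or PBS in serum-free MEM for 5 h, then complete MEM for a further 24 h. Luciferase then read by ONE-Glo luminescence after lysis and reported as average RLU of 4 replicate wells.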

[2] = Encapsulation of mRNA nanoparticles with lipid amines using Ribogreen assay; assay type: physicochemical
Procedure, shortened: (§1)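 Ionizable lipid nanoparticles (IL1:DSPC:cholesterol:PEG-DMG-2K) formed by vortex mixing at pH 4, loaded with luciferase or CFTR mRNA at N:P 4.93, neutralized with TRIS pH 8.12, then modified with lipid amine SA50 at pH 7.5. Particle diameter and PDI read by DLS; mRNA encapsulation by Ribogreen assay.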

[3] = Diameter and PDI from DLS measurements of mRNA nanoparticles with lipid amines; assay type: physicochemical
Procedure, shortened: as §1

HeLa cells [4] = assay: CFTR Protein Expression Assay in HeLa Cells; assay type: cell-based, Human; conditions: LNPs encapsulating CFTR mRNA, N=4 wells; 5 h serum-free then 24 h; immunofluorescence vs PBS control
Procedure, shortened: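 HeLa cells dosed with CFTR mRNA LNPs (70 mM NaCl final buffer matrix) in serum-free MEM for 5 h, then complete MEM for 24 h. Fixed cells immunostained with anti-CFTR monoclonal and Alexa 488 secondary, imaged confocally; CFTR intensity per cell expressed as fold-change versus PBS buffer control, N=4 wells.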

[5] = CFTR mRNA nanoparticle with lipid amine
[6] = Luciferase mRNA nanoparticle modified with lipid amine

SMILES | Average Relative Light Units ± Standard Deviation (HeLa cells [1]) [Relative Light Units] | % Encapsulation (Ribogreen) [2, 5] [%] | % Encapsulation (Ribogreen) [2, 6] [%] | Diameter (nm) [3, 5] [nm] | PDI [3, 5] | Diameter (nm) [3, 6] [nm] | PDI [3, 6] | Average fold-change in CFTR signal intensity per cell compared to buffer control ± standard deviation (HeLa cells [4]) [fold-change]
CC(C)CCC[C@@H](C)[C@H]1CC[C@H]2[C@@H]3CC=C4C[C@@H](SSCCC(=O)N(CCCCCCCC(C)(C)N)CCC(C)(C)N)CC[C@]4(C)[C@H]3CC[C@]12C.Cl.Cl [SA139, N-(3-amino-3-methylbutyl)-N-(8-amino-8-methylnonyl)-3-(((3S,8S,9S,10R,13R,14S,17R)-10,13-dimethyl-17-((R)-6-methylheptan-2-yl)-2,3,4,7,8,9,10,11,12,13,14,15,16,17-tetradecahydro-1H-cyclopenta[a]phenanthren-3-yl)disulfaneyl)propanamide dihydrochloride] | 24497.9 ± 3998.9 | 99.4 | 99.4 | 68.9 | 0.12 | 72 | 0.12 | 13.3 ± 1.2
CC(C)CCC[C@@H](C)[C@H]1CC[C@H]2[C@@H]3CC=C4C[C@@H](OC(=O)CCC(=O)N(CCCCNCCC(C)N)CCC(C)N)CC[C@]4(C)[C@H]3CC[C@]12C (stereo partly drawn) [SA160, (3S,8S,9S,10R,13R,14S,17R)-10,13-dimethyl-17-((R)-6-methylheptan-2-yl)-2,3,4,7,8,9,10,11,12,13,14,15,16,17-tetradecahydro-1H-cyclopenta[a]phenanthren-3-yl 4-((3-aminobutyl)(4-((3-aminobutyl)amino)butyl)amino)-4-oxobutanoate trihydrochloride] | 19694.4 ± 6954.5 | 98.1 | 99.7 | 77.4 | 0.15 | 75 | 0.11 | 18.2 ± 1.4
CCC(N)(CC)CCNCCCCN(CCC(N)(CC)CC)C(=O)CCCC(=O)O[C@H]1CC[C@@]2(C)C(=CC[C@H]3[C@@H]4CC[C@H]([C@H](C)CCCC(C)C)[C@@]4(C)CC[C@@H]32)C1 [SA185, (3S,8S,9S,10R,13R,14S,17R)-10,13-dimethyl-17-((R)-6-methylheptan-2-yl)-2,3,4,7,8,9,10,11,12,13,14,15,16,17-tetradecahydro-1H-cyclopenta[a]phenanthren-3-yl 5-((3-amino-3-ethylpentyl)(4-((3-amino-3-ethylpentyl)amino)butyl)amino)-5-oxopentanoate trihydrochloride] | 36168.3 ± 7638.9 | 98.6 | 99.4 | 73 | 0.16 | 75 | 0.16 | 14.2 ± 1.0
CC(C)CCC[C@@H](C)[C@H]1CC[C@H]2[C@@H]3CC=C4C[C@@H](OC(=O)N(CCCCNCC(C)CN)CC(C)CN)CC[C@]4(C)[C@H]3CC[C@]12C (stereo partly drawn) [SA75, (3S,8S,9S,10R,13R,14S,17R)-10,13-dimethyl-17-((R)-6-methylheptan-2-yl)-2,3,4,7,8,9,10,11,12,13,14,15,16,17-tetradecahydro-1H-cyclopenta[a]phenanthren-3-yl (3-amino-2-methylpropyl)(4-((3-amino-2-methylpropyl)amino)butyl)carbamate trihydrochloride] | 37732.4 ± 6382.7 | 100 | 98.8 | 86.9 | 0.11 | 74 | 0.16 | 11.9 ± 0.6
